From patent publication US6562584B1, “Bacterial strains for the production of 2-keto-L-gulonic acid” (priority 1998, dated 2003)

Tests used:
[1] = test system: mouse astrogial cells; details: Bishop et al., Nutrition Reviews 56:287-293 (1998); cited from earlier work
[2] = test system: strains NRRL B-30035, NRRL B-30037N, and NRRL B-30036; assay: Antibiotic resistance by minimum inhibitory concentration (MIC), commercial "Pasco" system; type: cell-based; details: strains NRRL B-30035 (ADM 291-19), NRRL B-30037N (ADM 62A-12A), NRRL B-30036 (ADM 266-13B), based on physiologically attainable concentrations of antibiotic
Description: (6) Antibiotic resistance—sensitive to amikacin, augmentin (amoxicillin plus clavulonic acid), ampicillin, cefazolin, cefoxitin, ceftazidime, ceftiofur, cephalothin, enrofloxacin, florfenicol, gentamicin, imipenem, kanamycin, sarafloxicin, tetracycline, ticarcillin, and tilmicosin, but resistant to tribrissen ([…] plus sulfamethozole), as determined by minimum inhibitory concentration (MIC), based on physiologically attainable concentrations of antibiotic, employing the commercial “Pasco” system; and […]

Molecule	nerve growth factor synthesis [1]	Antibiotic resistance (sensitive / resistant) as determined by minimum inhibitory concentration (MIC) [2]
O=C(O)c1cc(C(=O)O)c2c(n1)C(=O)C(=O)c1cc(C(=O)O)[nH]c1-2 [PQQ, 2,7,9-tricarboxy-1H-pyrrolo[2,3-f]quino-line-4,5-dione]	increases	–
NCC[C@H](O)C(=O)N[C@@H]1C[C@H](N)[C@@H](O[C@H]2O[C@H](CN)[C@@H](O)[C@H](O)[C@H]2O)[C@H](O)[C@H]1O[C@H]1O[C@H](CO)[C@@H](O)[C@H](N)[C@H]1O [amikacin]	–	sensitive
CC1(C)S[C@@H]2[C@H](NC(=O)[C@H](N)c3ccccc3)C(=O)N2[C@H]1C(=O)O [ampicillin]	–	sensitive
Cc1nnc(SCC2=C(C(=O)O)N3C(=O)[C@@H](NC(=O)Cn4cnnn4)[C@H]3SC2)s1 [cefazolin]	–	sensitive
CO[C@@]1(NC(=O)Cc2cccs2)C(=O)N2C(C(=O)O)=C(COC(N)=O)CS[C@@H]21 [cefoxitin]	–	sensitive
CC(C)(O/N=C(\C(=O)N[C@@H]1C(=O)N2C(C(=O)[O-])=C(C[n+]3ccccc3)CS[C@H]12)c1csc(N)n1)C(=O)O [ceftazidime]	–	sensitive
CO/N=C(\C(=O)N[C@@H]1C(=O)N2C(C(=O)O)=C(CSC(=O)c3ccco3)CS[C@H]12)c1csc(N)n1 [ceftiofur]	–	sensitive
CC(=O)OCC1=C(C(=O)O)N2C(=O)[C@@H](NC(=O)Cc3cccs3)[C@H]2SC1 [cephalothin]	–	sensitive
CCN1CCN(c2cc3c(cc2F)c(=O)c(C(=O)O)cn3C2CC2)CC1 [enrofloxacin]	–	sensitive
CS(=O)(=O)c1ccc([C@@H](O)[C@@H](CF)NC(=O)C(Cl)Cl)cc1 [florfenicol]	–	sensitive
O=C(O)c1cn(-c2ccc(F)cc2)c2cc(N3CCNCC3)c(F)cc2c1=O [sarafloxicin]	–	sensitive
CC1(C)S[C@@H]2[C@H](NC(=O)[C@H](C(=O)O)c3ccsc3)C(=O)N2[C@H]1C(=O)O [ticarcillin]	–	sensitive
CC[C@H]1OC(=O)C[C@@H](O)[C@H](C)[C@@H](O[C@@H]2O[C@H](C)[C@@H](O)[C@H](N(C)C)[C@H]2O)[C@@H](CCN2C[C@H](C)C[C@H](C)C2)C[C@@H](C)C(=O)/C=C/C(C)=C/[C@@H]1CO[C@@H]1O[C@H](C)[C@@H](O)[C@@H](OC)[C@H]1OC [tilmicosin]	–	sensitive
gentamicin	–	sensitive
